Among the data in ChEMBL document CHEMBL3507680, “University of Dundee, Gates Library screen for HepG2 cell viability” are cytotoxicity values, retold here.

The data set in a line: Human HepG2 cell viability assay in 384 well format. The format is toxicity, cell-based. The arrangement: dose 125 nL, time 70.5 hour; cytotoxicity at 70.5 h: concentration not given beside the values. Conditions: HepG2 cells, read-out: Inhibition.

In the case of `CCOC1CC2(CCN(C(C)=O)CC2)c2cc(F)ccc21` (stereo not drawn), the cytotoxicity at 70.5 h was -3.98%.

Regarding `CC(C)N1[C@H](CN2CCCC2)C[C@@H]2CN(Cc3cnn(C)c3)CC[C@@H]21`, the cytotoxicity at 70.5 h was -10.1%.

Regarding `O=C(NCC1CC1)C1CCC2(CN(C(=O)c3ccno3)C2)O1` (stereo not drawn), the cytotoxicity at 70.5 h was -13.9%.

Turning to `O=C(c1ccno1)N1CC2(CCC(C(=O)N3CCCC3)O2)C1` (stereo not drawn), the cytotoxicity at 70.5 h was -14.7%.

`N#CCC(=O)NCc1nnc2n1CCN(Cc1ccco1)C2`: the cytotoxicity at 70.5 h is -13%.

As for `O=C(c1ccco1)N1CC[C@@H]2O[C@@H](COCC3CCOCC3)CC[C@@H]21`, the cytotoxicity at 70.5 h stood at 11.4%.

With `CN(C)C(=O)CN1CCC2(CCCN(c3ncc(F)cn3)C2)C1=O` (stereo not drawn), the cytotoxicity at 70.5 h amounted to 16.4%.

Consider `Cn1cc(CN2CCC3(CC2)CCN(Cc2ccccn2)CC3)cn1`, for which the cytotoxicity at 70.5 h came out at 12%.

`COCCC(=O)N1CCC2(COCc3cnc(NCC4CC4)nc32)C1` (stereo not drawn): the cytotoxicity at 70.5 h turned out to be 1.86%.

Take `CCN1CC2(CC1=O)CN(C(=O)c1cccs1)CCN(C(=O)N(C)C)C2` (stereo not drawn): the cytotoxicity at 70.5 h was -1.77%.

With `Cc1oncc1C(=O)N1CCC2(CCN(Cc3cccc(F)c3)C2=O)C1` (stereo not drawn), the cytotoxicity at 70.5 h was -2.01%.

Turning to `c1coc(CN2CC[C@@H]3O[C@@H](COCc4ccncc4)CC[C@@H]32)c1`, the cytotoxicity at 70.5 h was 3.57%.

As to `Cc1cnc(C(=O)N2C[C@H]3CN(Cc4cccs4)C[C@H]3C2)cn1`, the cytotoxicity at 70.5 h stood at 8.68%.

With `COc1ncnc2c1CCN(Cc1cccc(C)n1)CC2`, the cytotoxicity at 70.5 h was found to be 5.99%.

Consider `c1c(CN2CCCC2)nc2n1CCNC2`, for which the cytotoxicity at 70.5 h was 9.22%.

Take `CN1CCO[C@H]2CN(C(=O)c3ccncc3F)C[C@H]21`: the cytotoxicity at 70.5 h is -3.39%.

Turning to `Cn1ccnc1CN1CCc2ncnc(N3CCCC3)c2CC1`, the cytotoxicity at 70.5 h was -3.33%.

Regarding `COCCN1CCC12CCN(C(=O)c1ccsc1)CC2`, the cytotoxicity at 70.5 h was -11.4%.

As for `O=C(c1nc2c(o1)CN(CC1CC1)C2)N1CCCC1`, the cytotoxicity at 70.5 h is -13.1%.

Regarding `CO[C@H]1CN(Cc2ccc(C)o2)[C@@H]2CCCO[C@H]12`, the cytotoxicity at 70.5 h worked out at 13.3%.

For `CCOCC1CN(S(=O)(=O)CC)Cc2cnn(CC3CC3)c21` (stereo not drawn), the cytotoxicity at 70.5 h was 6.24%.

As to `c1cncc(CN2Cc3nccn3CC(Cn3cncn3)C2)c1` (stereo not drawn), the cytotoxicity at 70.5 h is 0.12%.

In the case of `c1csc(CN2Cc3nccn3CC(Cn3cncn3)C2)c1` (stereo not drawn), the cytotoxicity at 70.5 h is 2.43%.

Take `CCc1ccc(CN2Cc3nccn3CC(Cn3cncn3)C2)o1` (stereo not drawn): the cytotoxicity at 70.5 h amounted to 2.9%.

As to `CCOCC1CN(Cc2ccco2)Cc2nccn2C1` (stereo not drawn), the cytotoxicity at 70.5 h is 3.52%.

For the compound `Cc1cccc(CN2C(=O)CO[C@@H]3CN(C4CCOCC4)C[C@H]32)c1`, the cytotoxicity at 70.5 h was 0.326%.

`O=C(c1ccc(F)cc1)N1CCC2(CCN(Cc3ccccn3)C2=O)C1` (stereo not drawn): the cytotoxicity at 70.5 h was -5.2%.

Take `Cc1ccc(CN2Cc3nccn3CC(Cn3cncn3)C2)s1` (stereo not drawn): the cytotoxicity at 70.5 h was -1.32%.

As for `O=C(NC[C@H]1OC[C@@H]2CN(Cc3ccco3)CC[C@@H]21)c1cscn1`, the cytotoxicity at 70.5 h turned out to be 0.732%.

Turning to `Cc1cccc(CN2CCc3ncnc(C4CC4)c3CC2)n1`, the cytotoxicity at 70.5 h was determined as 5.72%.

As for `Cc1nc(CN2C(=O)CC[C@@H]3[C@H]2CCN3C2CCOC2)cs1` (stereo partly drawn), the cytotoxicity at 70.5 h was 1.29%.

Regarding `COc1ccc(CN2CCc3ncnc(C4CC4)c3CC2)cc1`, the cytotoxicity at 70.5 h was 1.6%.

`Cn1ccc(C(=O)NC2CCC23CCN(CC2CCOCC2)CC3)c1` (stereo not drawn): the cytotoxicity at 70.5 h stood at 3.91%.

Take `CO[C@@H]1CO[C@@]2(CCCN(Cc3nc(C)cs3)C2)C1`: the cytotoxicity at 70.5 h is -1.7%.

In the case of `Cc1ccc(CN2CC[C@H]3[C@H]2CC(=O)N3c2cccnc2)o1`, the cytotoxicity at 70.5 h was 8.92%.

Take `CCOCC1CN(CCN(C)C)Cc2cnn(CC3CCCC3)c21` (stereo not drawn): the cytotoxicity at 70.5 h was determined as 4.97%.

In the case of `CCOCC1CN(C2CCCC2)Cc2cnn(CC3CCOCC3)c21` (stereo not drawn), the cytotoxicity at 70.5 h is 2.06%.

In the case of `O=c1ccc2c(n1Cc1ccncc1)CCN(Cc1ccoc1)CC2`, the cytotoxicity at 70.5 h is 1.47%.
